Experimental data from patent US8716292B2, “Riminophenazines with 2-(heteroaryl)amino substituents and their anti-microbial activity” (priority 2010, dated 2014).
Values after ≈ are worked out from the molar mass of the structure shown.

System: Mycobacterium tuberculosis H37Rv strains
Assay: In vitro assay for antimicrobial susceptibility (microplate Alamar blue MIC)
Assay type: cell-based
Conditions: Mycobacterium tuberculosis, H37RV, 7H9, Alamar blue, inhibition ≧90%; read-out: MIC (μg/mL) against H37Rv

SMILES	MIC [µg/mL]
COC1CCC(/N=c2\cc3n(-c4ccc(F)cc4)c4ccccc4nc-3cc2Nc2ncccn2)CC1 (centres unmarked) [TBI-1080, 5-(4-Fluorophenyl)-3-(4-methoxycyclohexyl)imino-2-(pyrimidin-2-yl)amino-3,5-dihydrophenazine]	0.029 (≈ 0.0586 µM)

Same assay, conditions: Mycobacterium tuberculosis, H37RV, in vitro, Mycobacterium tuberculosis H37Rv strains; read-out: MIC (μg/mL) against H37Rv

SMILES	MIC [µg/mL]
COc1ncccc1Nc1cc2nc3ccccc3n(-c3ccc(NC(C)=O)cc3)c-2c/c1=N\C(C)C [TBI-1220, 5-(4-Acetamidophenyl)-3-(1-methylethyl)imino-2-(2-methoxy-3-pyridyl)amino-3,5-dihydrophenazine]	> 0.5
Cc1ccc(-n2c3c/c(=N\C4CCN(C)CC4)c(Nc4cccnc4)cc-3nc3ccccc32)cc1 [TBI-304, 5-(4-Methylphenyl)-3-(N-methyl-4-piperidyl)imino-2-(3-pyridinyl)amino-3,5-dihydro-phenazine]	0.25 (≈ 0.527 µM)
FC(F)(F)Oc1cccc(-n2c3c/c(=N\C4CC4)c(Nc4cccnc4)cc-3nc3ccccc32)c1 [TBI-1021, 5-(3-Trifluoromethoxyphenyl)-3-cyclopropylimino-2-(3-pyridyl)amino-3,5-dihydrophenazine]	0.054 (≈ 0.111 µM)
COc1ccc(Nc2cc3nc4ccccc4n(-c4ccc(C(F)(F)F)cc4)c-3c/c2=N\C(C)C)cn1 [TBI-731]	0.348 (≈ 0.691 µM)
COc1ncccc1Nc1cc2nc3ccccc3n(-c3ccc(C(F)(F)F)cc3)c-2c/c1=N\C1CCN(CC(C)C)CC1 [TBI-702]	0.016 (≈ 0.0266 µM)
Cc1cncc(Nc2cc3nc4ccccc4n(-c4ccc(F)cc4)c-3c/c2=N\C2CCCCC2)c1 [TBI-1029, 5-(4-Fluorophenyl)-3-cyclohexylimino-2-(5-methyl-3-pyridyl)amino-3,5-dihydrophenazine]	0.027 (≈ 0.0565 µM)
COc1ccc(Nc2cc3nc4ccccc4n(-c4ccc(F)cc4)c-3c/c2=N\C(C)C)cn1 [TBI-930]	0.494 (≈ 1.09 µM)
Cc1ncccc1Nc1cc2nc3ccccc3n(-c3ccc(C(F)(F)F)cc3)c-2c/c1=N\C1CCCCC1 [TBI-708, 5-(4-Trifluoromethylphenyl)-3-cyclohexylimino-2-(2-methyl-3-pyridyl)amino-3,5-dihydrophenazine]	0.028 (≈ 0.0531 µM)
COc1ncccc1Nc1cc2nc3ccccc3n(-c3ccc(Br)cc3)c-2c/c1=N\C(C)C [TBI-516, 5-(4-Bromophenyl)-3-(1-methylethyl)imino-2-(2-methoxy-3-pyridyl)amino-3,5-dihydrophenazine]	0.049 (≈ 0.0953 µM)
CC(C)/N=c1\cc2n(-c3ccc(Br)cc3)c3ccccc3nc-2cc1Nc1cccnc1 [TBI-088, 5-(4-Bromophenyl)-3-(1-methylethyl)imino-2-(3-pyridyl)amino-3,5-dihydrophenazine]	0.023 (≈ 0.0475 µM)
Cc1ccc(Nc2cc3nc4ccccc4n(-c4ccc(Br)cc4)c-3c/c2=N\C2CCCCC2)cn1 [TBI-502, 5-(4-Bromophenyl)-3-cyclohexylimino-2-(6-methyl-3-pyridyl)amino-3,5-dihydrophenazine]	0.217 (≈ 0.403 µM)
Cc1ccc(Nc2cc3nc4ccccc4n(-c4ccc(F)cc4)c-3c/c2=N\C2CCN(C)CC2)cn1 [TBI-901, 5-(4-Fluorophenyl)-3-(N-methyl-4-piperidyl)imino-2-(6-methyl-3-pyridyl)amino-3,5-dihydrophenazine]	0.102 (≈ 0.207 µM)
CC(C)/N=c1\cc2n(-c3ccccc3Cl)c3ccccc3nc-2cc1Nc1cccnc1 [TBI-890, 5-(2-Chlorophenyl)-3-(1-methylethyl)imino-2-(3-pyridyl)amino-3,5-dihydrophenazine]	0.476 (≈ 1.08 µM)
Cc1ccc(Nc2cc3nc4ccccc4n(-c4ccc(Cl)cc4)c-3c/c2=N\C2CCN(CC(C)C)CC2)cn1 [TBI-447, 5-(4-Chlorophenyl)-3-(N-isobutyl-4-piperidyl)imino-2-(6-methyl-3-pyridyl)amino-3,5-dihydrophenazine]	0.028 (≈ 0.0508 µM)
COc1ncccc1Nc1cc2nc3ccccc3n(-c3ccccc3)c-2c/c1=N\C1CCC(OC)CC1 (centres unmarked) [TBI-063, 5-Phenyl-3-(4-methoxycyclohexyl)imino-2-(2-methoxy-3-pyridyl)amino-3,5-dihydrophenazine]	0.06 (≈ 0.119 µM)
Cc1cncc(Nc2cc3nc4ccccc4n(-c4ccc(C(F)(F)F)cc4)c-3c/c2=N\C2CCCCC2)c1 [TBI-722, 5-(4-Trifluoromethylphenyl)-3-cyclohexylimino-2-(5-methyl-3-pyridyl)amino-3,5-dihydrophenazine]	0.031 (≈ 0.0588 µM)
Cc1ccc(Nc2cc3nc4ccccc4n(-c4ccc(Cl)cc4)c-3c/c2=N\CCN2CCOCC2)cn1 [TBI-445, 5-(4-Chlorophenyl)-3-(2-morpholinoethyl)imino-2-(6-methyl-3-pyridyl)amino-3,5-dihydrophenazine]	0.076 (≈ 0.145 µM)
COc1ncccc1Nc1cc2nc3cc(F)ccc3n(-c3ccc(Cl)c(Cl)c3)c-2c/c1=N\C1CCC(OC)CC1 (centres unmarked) [TBI-879, 8-Fluoro-5-(3,4-dichlorophenyl)-3-(4-methoxycyclohexyl)imino-2-(2-methoxy-3-pyridyl)amino-3,5-dihydrophenazine]	0.109 (≈ 0.184 µM)
COc1ccc(Nc2cc3nc4ccccc4n(-c4ccccc4)c-3c/c2=N\C2CC2)cn1 [TBI-511, 5-Phenyl-3-cyclopropylimino-2-(6-methoxy-3-pyridyl)amino-3,5-dihydrophenazine]	0.177 (≈ 0.408 µM)
COc1ncccc1Nc1cc2nc3cc(F)ccc3n(-c3ccc(Cl)cc3)c-2c/c1=N\C1CCOCC1 [TBI-937, 8-Fluoro-5-(4-chlorophenyl)-3-(4-tetrahydropyranyl)imino-2-(2-methoxy-3-pyridyl)amino-3,5-dihydrophenazine]	0.125 (≈ 0.236 µM)
Fc1ccc(-n2c3c/c(=N\CCN4CCOCC4)c(Nc4cccnc4)cc-3nc3ccccc32)cc1 [TBI-680, 5-(4-Fluorophenyl)-3-(2-morpholinoethyl)imino-2-(3-pyridyl)amino-3,5-dihydrophenazine]	0.5 (≈ 1.01 µM)
COc1nc(C)ccc1Nc1cc2nc3ccccc3n(-c3ccc(F)cc3)c-2c/c1=N\C(C)C [TBI-1092, 5-(4-Fluorophenyl)-3-(1-methylethyl)imino-2-(2-methoxy-6-methyl-3-pyridyl)amino-3,5-dihydrophenazine]	0.424 (≈ 0.907 µM)
COc1ncccc1Nc1cc2nc3ccccc3n(-c3ccc(OC(F)(F)F)cc3)c-2c/c1=N\C1CCN(CC(C)C)CC1 [TBI-165, 5-(4-Trifluoromethoxyphenyl)-3-(N-isobutyl-4-piperidyl)imino-2-(2-methoxy-3-pyridyl)amino-3,5-dihydrophenazine]	0.016 (≈ 0.0259 µM)
COCC(C/N=c1\cc2n(-c3cccc(Cl)c3)c3ccccc3nc-2cc1Nc1cccnc1OC)OC (centres unmarked) [TBI-826, 5-(3-Chlorophenyl)-3-(2,3-dimethoxy-1-propyl)imino-2-(2-methoxy-3-pyridyl)amino-3,5-dihydrophenazine]	0.125 (≈ 0.236 µM)
CN1CCC(/N=c2\cc3n(-c4ccc(F)cc4)c4ccccc4nc-3cc2Nc2cccnc2)CC1 [TBI-682]	0.25 (≈ 0.522 µM)
Cc1ccc(-n2c3c/c(=N\C4CCC(O)CC4)c(Nc4ccc(C)nc4)cc-3nc3ccccc32)cc1 (centres unmarked) [TBI-334, 5-(4-Methylphenyl)-3-(4-hydroxycyclohexyl)imino-2-(6-methyl-3-pyridyl)amino-3,5-dihydrophenazine]	0.372 (≈ 0.76 µM)
COCC(COC)/N=c1\cc2n(-c3ccc(C)cc3)c3ccccc3nc-2cc1Nc1cccnc1OC [TBI-373, 5-(4-Methylphenyl)-3-(1,3-dimethoxyisopropyl)imino-2-(2-methoxy-3-pyridyl)amino-3,5-dihydrophenazine]	0.125 (≈ 0.245 µM)
Cc1ccc(Nc2cc3nc4ccccc4n(-c4ccc(Cl)c(Cl)c4)c-3c/c2=N\C2CCC2)cn1 [TBI-948, 5-(3,4-Dichlorophenyl)-3-cyclobutylimino-2-(6-methyl-3-pyridyl)amino-3,5-dihydrophenazine]	0.125 (≈ 0.25 µM)
